The results in this text go back to publication PMC7767178 (International Journal of Molecular Sciences, 2020).

One data set has as its system A. veronii CL0901. The procedure:
(§1) Briefly, the tested strains including Gram-negative bacteria, Gram-positive bacteria, and fungi were cultured to the logarithmic growth phase, diluted to 10^5 CFU/mL, and added into 96-well plates (90 μL/well). Two-fold serial dilutions of peptides or antibiotics dissolved in PBS were added to each well (10 μL/well). […] All experiments were repeated three times.

Data set [1] concerns Pseudomonas aeruginosa CICC21630. The procedure: as §1
In the next data set the test system is S. aureus ATCC25923. On the procedure:
as §1

The subject of a further data set is S. hyicus NCTC10350. On the procedure: as §1
The subject of the next data set is Salmonella. Conditions: range over the strains of Table 2.
For a further data set, the system named is trypsin. The note with it: pH 8.
Setting [2] is: A. veronii CL0901, broth dilution, 37 °C, 16–18 h, three experiments.
Setting [3] is: Pseudomonas aeruginosa CICC21630, broth dilution, 37 °C, 16–18 h, three experiments.
The mark [4] stands for this setting: S. aureus ATCC25923, broth dilution, 37 °C, 16–18 h, three experiments.

Like-named read-outs stand apart in the source and are kept apart here. Positions of bridges follow the written chain, without caps; N, C: chain ends. Residues, ends and D or L forms follow the SMILES beside them.

Take `CC(C)[C@@H]1NC(=O)CNC(=O)[C@H](CC(N)=O)NC(=O)[C@H](CCCNC(=N)N)NC(=O)[C@H](Cc2ccc(O)cc2)NC(=O)[C@H](C(C)C)NC(=O)[C@@H](NC(=O)[C@@H](NC(=O)[C@H](CC(N)=O)NC(=O)[C@H](Cc2c[nH]c3ccccc23)NC(=O)[C@H](C)NC(=O)[C@H](Cc2ccccc2)NC(=O)CN)C(C)C)CSSC[C@@H](C(=O)N[C@@H](Cc2c[nH]cn2)C(=O)N[C@@H](CCCNC(=N)N)C(=O)N2CCC[C@H]2C(=O)N[C@@H](C)C(=O)N[C@@H](CC(N)=O)C(N)=O)NC(=O)[C@H](C(C)C)NC(=O)[C@H](CCCNC(=N)N)NC1=O` [N6PNH2] (H-GFAWNVCVYRNGVRVCHRPAN-NH2; disulfide 7-16 (inferred)): the minimal inhibitory concentration (MIC) was 26.49 µM against A. veronii CL0901; 64 µg/mL against A. veronii CL0901 (setting [2]); greater than 64 µg/mL in data set [1] (setting [3]); greater than 64 µg/mL against S. aureus ATCC25923 (setting [4]); greater than 52.98 µM with S. hyicus NCTC10350 (NCTC10350). In addition, in the data set on Salmonella, the “MIC values against Salmonella” value is 0.83 to 13.25 µM. The “MIC after trypsin treatment” value against trypsin was “lost their activity”.
Regarding `CC(C)[C@H](N)C(=O)N[C@@H](Cc1ccccc1)C(=O)N[C@@H](C)C(=O)N[C@@H](Cc1c[nH]c2ccccc12)C(=O)N[C@@H](CC(N)=O)C(=O)N[C@H](C(=O)N[C@H]1CSSC[C@@H](C(=O)N[C@@H](Cc2c[nH]cn2)C(=O)N[C@@H](CCCNC(=N)N)C(=O)N[C@@H](CCCNC(=N)N)C(=O)N[C@@H](C)C(=O)N[C@@H](CC(N)=O)C(N)=O)NC(=O)[C@H](C(C)C)NC(=O)[C@H](CCCNC(=N)N)NC(=O)[C@H](C(C)C)NC(=O)[C@H](C(C)C)NC(=O)[C@H](CC(N)=O)NC(=O)[C@H](CCCNC(=N)N)NC(=O)[C@H](Cc2ccc(O)cc2)NC(=O)[C@H](C(C)C)NC1=O)C(C)C` [V112N6NH2] (H-VFAWNVCVYRNVVRVCHRRAN-NH2; disulfide 7-16 (inferred)), the MIC against A. veronii CL0901 came to 12.51 µM; against A. veronii CL0901 (setting [2]), 32 µg/mL; in data set [1] (CICC21630), 12.5 µM; in data set [1] (setting [3]), 32 µg/mL; against S. aureus ATCC25923 (ATCC25923), 12.5 µM; in the data set with S. aureus ATCC25923 (setting [4]), 32 µg/mL. Further, the minimum inhibitory concentration (MIC) in the data set with S. hyicus NCTC10350 (NCTC10350) came to 25.01 µM; against S. hyicus NCTC10350 (S. hyicus NCTC10350, broth dilution, 37 °C, 16–18 h, three experiments), 64 µg/mL. Besides, in the data set on Salmonella, the “MIC values against Salmonella” value was 0.78 to 6.25 µM. The “MIC after trypsin treatment” value with trypsin is reported as “lost their activity”.
